Measurements published in ChEMBL document CHEMBL1150977, “A quantitative analysis of kinase inhibitor selectivity” (Nat Biotechnol, 2008).

Tests used:
[1] = target: Mitogen-activated protein kinase kinase kinase kinase 4 (Homo sapiens, UniProt O95819)
[2] = target: T1, Testis-specific serine/threonine-protein kinase 1 (Homo sapiens, UniProt Q9BXA7)
T1 sequence (Q9BXA7 whole entry): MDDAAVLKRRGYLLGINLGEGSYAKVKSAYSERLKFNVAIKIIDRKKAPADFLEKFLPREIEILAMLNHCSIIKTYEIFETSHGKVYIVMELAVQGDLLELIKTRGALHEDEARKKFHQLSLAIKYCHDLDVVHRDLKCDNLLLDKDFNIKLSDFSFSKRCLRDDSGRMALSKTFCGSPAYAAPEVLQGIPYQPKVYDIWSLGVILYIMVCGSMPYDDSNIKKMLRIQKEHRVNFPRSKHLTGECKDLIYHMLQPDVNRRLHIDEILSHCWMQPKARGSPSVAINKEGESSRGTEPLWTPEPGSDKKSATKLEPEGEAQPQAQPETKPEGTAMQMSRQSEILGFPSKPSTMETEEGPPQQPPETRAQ

[3] = target: Activin receptor type-2A (Homo sapiens, UniProt P27037)
[4] = target: T2, Serine/threonine-protein kinase BRSK1 (Homo sapiens, UniProt Q8TDC3)
T2 sequence (Q8TDC3 whole entry): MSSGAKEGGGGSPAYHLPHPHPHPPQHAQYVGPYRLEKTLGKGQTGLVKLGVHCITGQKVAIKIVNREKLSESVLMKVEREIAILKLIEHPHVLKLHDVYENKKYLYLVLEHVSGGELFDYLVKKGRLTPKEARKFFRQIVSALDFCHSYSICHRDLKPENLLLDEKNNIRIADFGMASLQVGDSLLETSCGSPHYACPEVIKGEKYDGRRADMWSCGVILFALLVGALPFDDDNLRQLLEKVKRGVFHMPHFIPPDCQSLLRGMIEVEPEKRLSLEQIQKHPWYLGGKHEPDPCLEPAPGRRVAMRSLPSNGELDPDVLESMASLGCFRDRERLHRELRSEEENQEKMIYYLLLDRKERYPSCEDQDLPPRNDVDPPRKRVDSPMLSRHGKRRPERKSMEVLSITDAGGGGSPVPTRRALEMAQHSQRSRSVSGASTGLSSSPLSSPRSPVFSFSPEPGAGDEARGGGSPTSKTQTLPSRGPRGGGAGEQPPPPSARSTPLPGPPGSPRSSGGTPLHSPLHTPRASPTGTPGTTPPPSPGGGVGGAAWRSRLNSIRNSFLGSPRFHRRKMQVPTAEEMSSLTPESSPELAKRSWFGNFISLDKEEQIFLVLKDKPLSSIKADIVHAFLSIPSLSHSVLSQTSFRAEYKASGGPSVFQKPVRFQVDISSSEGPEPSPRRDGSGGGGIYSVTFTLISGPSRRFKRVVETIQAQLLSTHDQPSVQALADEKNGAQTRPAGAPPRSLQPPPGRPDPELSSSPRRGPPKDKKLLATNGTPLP

[5] = target: Myosin light chain kinase 2, skeletal/cardiac muscle (Homo sapiens, UniProt Q9H1R3)
[6] = target: Ribosomal protein S6 kinase alpha-4 (Homo sapiens, UniProt O75676)
[7] = target: T3, Serine/threonine-protein kinase Nek5 (Homo sapiens, UniProt Q6P3R8)
T3 sequence (Q6P3R8 whole entry): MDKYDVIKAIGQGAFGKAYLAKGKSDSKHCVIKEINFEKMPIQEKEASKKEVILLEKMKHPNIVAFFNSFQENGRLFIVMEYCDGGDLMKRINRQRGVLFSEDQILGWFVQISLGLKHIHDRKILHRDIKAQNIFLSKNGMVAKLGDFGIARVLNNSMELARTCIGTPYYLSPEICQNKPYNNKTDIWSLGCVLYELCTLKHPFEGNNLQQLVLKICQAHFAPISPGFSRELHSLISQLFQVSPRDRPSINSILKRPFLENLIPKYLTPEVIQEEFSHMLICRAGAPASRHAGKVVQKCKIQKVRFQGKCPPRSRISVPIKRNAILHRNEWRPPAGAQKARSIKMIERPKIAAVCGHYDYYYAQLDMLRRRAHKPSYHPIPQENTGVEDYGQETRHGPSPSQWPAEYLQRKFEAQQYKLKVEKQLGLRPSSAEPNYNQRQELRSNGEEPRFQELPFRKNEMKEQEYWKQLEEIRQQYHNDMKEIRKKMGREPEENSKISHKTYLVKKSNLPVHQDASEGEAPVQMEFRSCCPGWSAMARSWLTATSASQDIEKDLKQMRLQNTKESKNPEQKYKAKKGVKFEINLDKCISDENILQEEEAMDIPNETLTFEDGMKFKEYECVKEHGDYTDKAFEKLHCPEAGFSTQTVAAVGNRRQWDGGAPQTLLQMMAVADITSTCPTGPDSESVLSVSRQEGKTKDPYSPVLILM

[8] = target: T4, Mitogen-activated protein kinase kinase kinase kinase 3 (Homo sapiens, UniProt Q8IVH8)
T4 sequence (Q8IVH8 whole entry): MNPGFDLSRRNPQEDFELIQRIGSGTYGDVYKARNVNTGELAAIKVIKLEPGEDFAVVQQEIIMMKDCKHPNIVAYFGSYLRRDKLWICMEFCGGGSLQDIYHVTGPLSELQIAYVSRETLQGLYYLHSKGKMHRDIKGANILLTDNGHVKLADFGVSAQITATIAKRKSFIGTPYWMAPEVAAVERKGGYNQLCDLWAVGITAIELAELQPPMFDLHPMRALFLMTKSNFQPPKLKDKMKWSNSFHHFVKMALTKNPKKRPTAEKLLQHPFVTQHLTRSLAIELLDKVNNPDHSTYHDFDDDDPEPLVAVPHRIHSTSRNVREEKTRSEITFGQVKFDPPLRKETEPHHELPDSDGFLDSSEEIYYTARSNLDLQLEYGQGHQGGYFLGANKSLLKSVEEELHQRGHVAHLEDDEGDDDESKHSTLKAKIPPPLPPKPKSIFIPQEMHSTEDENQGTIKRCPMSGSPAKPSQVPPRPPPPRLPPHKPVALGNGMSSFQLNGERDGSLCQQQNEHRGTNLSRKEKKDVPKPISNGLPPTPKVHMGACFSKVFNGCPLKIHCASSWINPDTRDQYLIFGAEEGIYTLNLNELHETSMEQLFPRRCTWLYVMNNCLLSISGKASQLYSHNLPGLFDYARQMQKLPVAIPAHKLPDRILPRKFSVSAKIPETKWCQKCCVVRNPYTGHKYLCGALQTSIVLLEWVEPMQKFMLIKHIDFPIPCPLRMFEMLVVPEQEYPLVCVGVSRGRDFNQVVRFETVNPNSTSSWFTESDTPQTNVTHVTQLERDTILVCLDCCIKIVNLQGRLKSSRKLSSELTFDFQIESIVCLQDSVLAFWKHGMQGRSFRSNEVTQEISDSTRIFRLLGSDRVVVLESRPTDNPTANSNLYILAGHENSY

Measured: Kd

Oc1ccc(-c2nc(-c3ccncc3)c(-c3ccc(F)cc3)[nH]2)cc1 [SB-202190]
> 10 µM: all assays above

COCC(=O)NC/C=C/c1ccc2ncnc(Nc3ccc(Oc4ccc(C)nc4)c(C)c3)c2c1 [CP-724714]
> 10 µM: all assays above

Nc1nc(Nc2ccc(S(N)(=O)=O)cc2)nn1C(=O)c1c(F)cccc1F [JNJ-7706621]
> 10 µM: [2] | [5] | [6] | [7]

NC(=O)c1ccc(-c2nc(-c3ccc4c(c3)OCO4)c(-c3ccccn3)[nH]2)cc1 [SB-431542]
> 10 µM: all assays above

CCOc1cc2ncc(C#N)c(Nc3ccc(F)c(Cl)c3)c2cc1NC(=O)/C=C/CN(C)C [PELITINIB]
> 10 µM: [2] | [3] | [4] | [6] | [7]
